Results: publication PMC8318231, “Rate-of-Kill (RoK) assays to triage large compound sets for Chagas disease drug discovery: Application to GSK Chagas Box” (PLoS Neglected Tropical Diseases, 2021)

Columns and labels:
[1] = system: TcCYP51; settings: formerly reported; cited from earlier work
[2] = system: T. cruzi Tulahuen trypomastigotes; test: T. cruzi trypomastigote assay (Cell Titer-Glo viability, ATP luminescence); assay type: cell-based, Trypanosoma cruzi; settings: for Trypomastigotes pIC50 48 hours: 48 hours incubation; for Trypomastigotes pIC50 48 hours / Trypomastigotes pIC50 72 hours: pIC50 = -log10 IC50 in molar units; for Trypomastigotes pIC50 72 hours: 72 hours incubation; for 72 pIC50 (trypomastigotes, raw data of Fig 1D): 72 hours, plotted values, censored values given without sign; for 48 pIC50 / 72 pIC50: trypomastigote assay; for 48 pIC50: 48 h; for 72 pIC50: 72 h
How it was run: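 Compounds were tested in dose response or once at a final 5 μM against 5 × 10^4 trypomastigotes per well (DMEM, 2% FBS), collected on days 5–8 from LLC-MK2 infected cultures. ATP luminescence via CellTiter-Glo reports live parasites; DMSO defines 0% and cell-free wells 100% effect.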

[3] = system: T. cruzi intracellular amastigotes in H9c2 cells; test: Rate-of-Kill (RoK) high-content imaging assay, amastigotes per cell (AM/CELL) and curve descriptors; assay type: cell-based, Trypanosoma cruzi; parameters: key to ME_24h / ME_48h / ME_72h: % reduction in parasite burden (cidal response); t50pct_MCC50 / t50pct_Cmax: unit not given here; settings: for ME_24h: 24h; for ME_48h: 48h; for ME_72h: 72h; for t50%_Cmax / tlag_Cmax / t50pct_Cmax: at Cmax; for ME_24h (%): maximum effect at 24 h; for ME_24h (%) / ME_48h (%) / ME_72h (%): RoK assay; for ME_48h (%): maximum effect at 48 h; for ME_72h (%): maximum effect at 72 h; for ME 24h (maximum effect at 24 hours, intracellular amastigotes): maximum percentage of parasite burden reduction reached by any concentration
Method: For this high-content intracellular imaging assay, H9c2 cells were seeded in 225 cm^2 T- FLASK in DMEM with 10% FBS for 4 h to allow attachment. T. cruzi trypomastigotes, collected at days 5 to 8 after infection from LLC-MK2 parasite infected cultures, were allowed to swim out for 4 h at 37°C from a centrifuged pellet (1,600 x g / 10 min). Trypomastigotes were then collected and counted in a CASY Cell Counter using the 60 μm capillary. Trypomastigotes, in supplemented DMEM, were added to H9c2 cultures in a multiplicity of infection (MOI) of 8 and incubated for 18 h. Cells were washed once with PBS before incubation of the infected H9c2 monolayer with trypsin (Life-Technologies) to detach cells from the flask. Cells were counted in a CASY Cell Counter, using the 150 μm capillary, and their density set at 5 x 10^4 cells/mL in supplemented DMEM. Infected H9c2 were dispensed into 384-well plates at 50 μL per well using a Multidrop Combi dispenser. Control wells used to determine a 100% parasitic growth (full 6th column of each plate) were left untreated, whereas not infected cells were added in the control wells used as 0% parasite growth (or 100% parasite growth inhibition; full 18th column of each plate). The four plates corresponding to each RoK assay were predispensed for the same mother plate. […] Cultures were then fixed and stained with 50 μL per well of a PBS solution containing 4% formaldehyde and 2 μM DRAQ5 DNA dye (BioStatus, UK). Then plates were read in a PerkinElmer Opera Phenix using a 20x objective, 3 fields per well. DRAQ5 signal was detected using 640 nm excitation laser and a 690/50 nm emission detection filter. Automated image analysis was performed with a script developed on Acapella High Content Imaging and Analysis Software (PerkinElmer). Two outputs were provided for each sample well: (1) number of host cells nuclei to determine drug-related cytotoxicity (aka H9c2) and (2) number of amastigotes per cell as infection level measurement (aka AM/CELL). Each output is plotted as a time course for each compound at every concentration. This assay was adapted from Alonso-Padilla et al. and Peña et al..
To identify and classify the different compounds, the number of amastigotes per cell (AM/CELL) raw data obtained in rate of kill assay are normalised using the average of C1 (infected cells) at time 4 hours as 0% effect and the average of C2 (non-infected cells) for each time as 100% effect, according to the following Eq 1: %CIDALRESPONSE=100*[Avg_C14h-RawData]/[Avg_C14h-Avg_C2] (1)
• ME (Maximum Effect) is the maximum percentage of parasite burden reduction reached by any compound concentration. Compounds that decrease the initial parasite load will show a positive value of ME, whereas compounds that allow the progression of infection will render a negative ME value. […] It is calculated for the MCC50 (t50%_MCC50) and for the maximum concentration (t50%_Cmax). […] The value of this parameter is not either interpolated or extrapolated, and it refers to the first experimental time-course point at which a 50% of effect is reached or exceeded. • tlag defines the time elapsed for one particular concentration to reduce parasite burden between two consecutive points at any moment of the time course. It is calculated for the MCC50 (tlag_MCC50) and for the maximum concentration (tlag_Cmax). The value of this parameter is not either interpolated or extrapolated, and it refers to the first experimental time-course point of a positive slope in the normalised plot (i.e. %Cidal_Response). • Cmin_Tox (Minimal CytoToxic Concentration) is the lowest compound concentration that is reducing the number of host mammalian cells below 50% of initial cell density. Cytotoxic compounds may mislead a bona fide antiparasitic action.

SMILES | CYP51 pIC50 [1] | Trypomastigotes pIC50 48 hours [2] | Trypomastigotes pIC50 72 hours [2] | ME_24h ([3]; figure 5) | ME_48h ([3]; figure 5) | ME_72h ([3]; figure 5) | MCC50 ([3]; RoK curve descriptor) [µM] | MCCE ([3]; RoK curve descriptor) [µM] | AM/CELL NORM ([3]; Time 4, sheet figure 4 A) | AM/CELL NORM ([3]; Time 24, sheet figure 4 A) | tlag_Cmax [3] [h] | t50pct_Cmax ([3]; figure 5) | tlag_Cmax ([3]; figure 5) | t50pct_MCC50 ([3]; at MCC50, figure 5) | tlag_MCC50 ([3]; at MCC50, figure 5) | MCCE ([3]; figure 5) | ME_24h (%) [3] [%] | ME_48h (%) [3] [%] | ME_72h (%) [3] [%] | ME 24h (maximum effect at 24 hours, intracellular amastigotes) [3] [%] | also measured
CN(C)Cc1ccc(-c2ccc(S(=O)(=O)NCC3CCCO3)c(F)c2)cc1.O=C(O)C(F)(F)F (stereo not drawn) [TCMDC-143085] | 4.4 | < 4.3 | < 4.3 | -52.4333 | 20.7837 | 66.9859 | 1.9 | 0.6 | -2.755 | -52.4333 | 24.0 | 72 | 24 | 72 | 24 | 0.6173 | -52.4 | 20.8 | 67.0 | -52.4333 | 72 pIC50 (trypomastigotes, raw data of Fig 1D) [2]: < 4.3; 48 pIC50 ([2]; figure 1A): < 4.2; 72 pIC50 ([2]; figure 1A): < 4.3; 72 pIC50 ([2]; figure 1B): < 4.3; AM/CELL NORM ([3]; Time 48, sheet figure 4 A): 10.0788; AM/CELL NORM ([3]; Time 72, sheet figure 4 A): 59.3639; t50%_Cmax [3]: 72.0 h; t50%_MCC50 ([3]; at MCC50): 72.0 h; tlag_MCC50 ([3]; at MCC50): 24.0 h; MCC50 ([3]; figure 5, in µM): 1.852
Cc1nc2nc(C)c(Cc3ccc(C(C)C)cc3)c(=O)n2[nH]1 [TCMDC-143087] | < 4 | 5.8 | 5.9 | 30.2741 | 57.5973 | 64.9642 | 0.6 | 0.3 | 2.257 | 40.319 | 4.0 | 60 | 4 | 72 | 38 | 0.3099 | 30.3 | 57.6 | 65.0 | 41.0116 | activity in trypomastigotes assay (in words) ([2]; 48 and 72 hours): active versus trypomastigotes at 48 and 72 hours with the same potency; ME (maximum effect) in RoK assay (in words) [3]: positive value of ME from 24 hours; tlag (in words) [3]: low values of tlag; ME / cidal effect at 72 hours ([3]; 72 hours): ≤ 65%; AM/CELL NORM ([3]; Time 48, sheet figure 4 A): 64.8982; AM/CELL NORM ([3]; Time 72, sheet figure 4 A): 80.3688; t50%_Cmax [3]: 60.0 h; t50%_MCC50 ([3]; at MCC50): 72.0 h; tlag_MCC50 ([3]; at MCC50): 4.0 h; MCC50 ([3]; figure 5, in µM): 25.3086
COc1cc(C(C)C)c(S(C)(=O)=O)cc1C(=O)N1CCN(c2ccccc2Cl)CC1 [TCMDC-143097] | < 4 | < 4.3 | < 4.3 | -95.8223 | -1.8208 | 22.9753 | – | 1.9 | -12.0353 | -95.8223 | 24.0 | 72 | 24 | 72 | 72 | 1.852 | -95.8 | -1.8 | 23.0 | -95.8223 | 72 pIC50 (trypomastigotes, raw data of Fig 1D) [2]: < 4.3; 48 pIC50 ([2]; figure 1A): < 4.3; 72 pIC50 ([2]; figure 1A): < 4.3; 72 pIC50 ([2]; figure 1B): < 4.3; AM/CELL NORM ([3]; Time 48, sheet figure 4 A): -56.5005; AM/CELL NORM ([3]; Time 72, sheet figure 4 A): 8.079; MCC50 ([3]; figure 5): 50 µM
COc1ccc(NS(=O)(=O)c2cccc(NC(=O)c3cc(F)cc(F)c3)c2)cc1 [TCMDC-143108] | < 4 | 5 | 5.6 | 74.207 | 103.042 | 85.1326 | 5.6 | 1.9 | – | – | 4.0 | 24 | 4 | 48 | 14 | 1.852 | 74.2 | 103.0 | 85.1 | 70.2211 | AM/CELL NORM ([3]; Time 4, figure 4 A): 3.957; AM/CELL NORM ([3]; Time 24, figure 4 A): 27.4841; AM/CELL NORM ([3]; Time 48, figure 4 A): 38.7704; AM/CELL NORM ([3]; Time 72, figure 4 A): 44.9716; t50%_Cmax [3]: 24.0 h; t50%_MCC50 ([3]; at MCC50): 48.0 h; tlag_MCC50 ([3]; at MCC50): 14.0 h; MCC50 ([3]; figure 5, in µM): 5.556
Cc1cc(N(C)C)nc(Nc2ccccc2C)n1 [TCMDC-143109] | < 4 | 5.7 | 5.6 | 47.5747 | 78.0835 | 82.1728 | 5.6 | 1.9 | 2.321 | 36.6087 | 4.0 | 48 | 4 | 48 | 4 | 1.852 | 47.6 | 78.1 | 82.2 | 47.5747 | AM/CELL NORM ([3]; Time 48, sheet figure 4 A): 78.0835; AM/CELL NORM ([3]; Time 72, sheet figure 4 A): 76.3621; t50%_Cmax [3]: 48.0 h; t50%_MCC50 ([3]; at MCC50): 48.0 h; tlag_MCC50 ([3]; at MCC50): 4.0 h; MCC50 ([3]; figure 5, in µM): 5.556
O=C1CSC(c2cccnc2)N1c1ccc(Cl)cc1Cl (stereo not drawn) [TCMDC-143114] | 6.8 | < 4.3 | < 4.3 | -4.949 | 48.1247 | 74.0117 | 50.0 | 0.6 | 4.621 | -4.949 | 24.0 | 72 | 24 | 72 | 24 | 0.6173 | -5.0 | 48.1 | 74.0 | -4.949 | 72 pIC50 (trypomastigotes, raw data of Fig 1D) [2]: < 4.3; 48 pIC50 ([2]; figure 1A): < 4.3; 72 pIC50 ([2]; figure 1A): < 4.3; 72 pIC50 ([2]; figure 1B): < 4.3; AM/CELL NORM ([3]; Time 48, sheet figure 4 A): 48.1247; AM/CELL NORM ([3]; Time 72, sheet figure 4 A): 74.0117; t50%_Cmax [3]: 72.0 h; t50%_MCC50 ([3]; at MCC50): 72.0 h; tlag_MCC50 ([3]; at MCC50): 24.0 h; MCC50 ([3]; figure 5): 50 µM
